Assay results published in US12681007B2, “High throughput method for constructing and screening compound library and reaction device” (ZH[…] (SHENZHEN) CO., LTD., priority 2019, dated 2026).

System: A549 (lung cancer) cells
Test: MTT screening of Erlotinib derivatives on A549 cells
Type: cell-based
Conditions: compound 10 μM, 24 hours, ratio of survival rate with derivative to survival rate with Erlotinib (lower = more active), unpurified in-situ reaction products
Procedure: Screening 840 Erlotinib derivatives by MTT method, operating steps: • (1) A549 (lung cancer) cells were adhered overnight: the logarithmic growth phase cells were digested and then counted, and were laid on 96 well plates overnight with 5000 cells per well. • (2) Adding drug: the compound concentration was diluted to 10 μM with complete culture solution, and the supernatant was discarded, and a volume of 100 μL per well was administrated and treated for 24 hours. • (3) Adding MTT: 20 μL MTT (5 mg/ml) was added to each well and cultured for 4 hours. • (4) Measuring the absorbance value: discarding the supernatant, 150 μL DMSO was added to each well, shaken for 10 minutes to make the crystals fully dissolved. The absorbance at 570 nm was measured by microplate reader.
The relative survival rate was calculated as the ratio of the survival rate of cells treated with Erlotinib derivatives to the survival rate of cells treated with positive compounds (Erlotinib), where lower relative survival rate means the activity of the compounds are better.

Going from `COCCOc1cc2ncnc(Nc3cccc(-c4cn([C@H](C)c5nc6ccccc6[nH]5)nn4)c3)c2cc1OCCOC` [Compound 52] to `COCCOc1cc2ncnc(Nc3cccc(-c4cn(-c5ccccc5)nn4)c3)c2cc1OCCOC` [Compound 266], the Relative survival rate rises from 0.993 to 1.130.

First: COCCOc1cc2ncnc(Nc3cccc(-c4cn(Cc5cccc(C(=O)OC)c5)nn4)c3)c2cc1OCCOC [Compound 50]
Second: COCCOc1cc2ncnc(Nc3cccc(-c4cn(CCc5cccc(OC)c5)nn4)c3)c2cc1OCCOC [Compound 20]
The Relative survival rate of the first is lower: 0.951 for the first, 0.993 for the second.

Compared with `COCCOc1cc2ncnc(Nc3cccc(-c4cn(-c5ccc(CC(=O)OC)cc5)nn4)c3)c2cc1OCCOC` [Compound 270], `COCCOc1cc2ncnc(Nc3cccc(-c4cn([C@H](Cc5ccc(O)cc5)C(=O)OC)nn4)c3)c2cc1OCCOC` [Compound 88] is lower in Relative survival rate: 1.200 for the first, 0.889 for the second.

Compared with `COCCOc1cc2ncnc(Nc3cccc(-c4cn(-c5ccc(Cc6ccccc6)cc5)nn4)c3)c2cc1OCCOC` [Compound 269], `COCCOc1cc2ncnc(Nc3cccc(-c4cn(-c5cc(C)nn5-c5ccccc5)nn4)c3)c2cc1OCCOC` [Compound 47] is lower in Relative survival rate: 1.289 for the first, 0.893 for the second.

First: COCCOc1cc2ncnc(Nc3cccc(-c4cn(CCc5cccc(F)c5)nn4)c3)c2cc1OCCOC [Compound 86]
Second: COCCOc1cc2ncnc(Nc3cccc(-c4cn(CCc5cccc(C(F)(F)F)c5)nn4)c3)c2cc1OCCOC [Compound 93]
The Relative survival rate of the first is higher: 0.861 for the first, 0.621 for the second.

Compared with `CCOC(=O)[C@H](Cc1ccc(O)cc1)n1cc(-c2cccc(Nc3ncnc4cc(OCCOC)c(OCCOC)cc34)c2)nn1` [Compound 26], `COCCOc1cc2ncnc(Nc3cccc(-c4cn([C@@H](Cc5ccccc5)C(=O)OC)nn4)c3)c2cc1OCCOC` [Compound 94] is lower in Relative survival rate: 0.942 for the first, 0.885 for the second.

Compared with `COCCOc1cc2ncnc(Nc3cccc(-c4cn(Cc5ccccc5S(C)(=O)=O)nn4)c3)c2cc1OCCOC` [Compound 55], `CCOc1ccccc1Cn1cc(-c2cccc(Nc3ncnc4cc(OCCOC)c(OCCOC)cc34)c2)nn1` [Compound 48] is higher in Relative survival rate: 0.814 for the first, 0.971 for the second.

Compared with `COCCOc1cc2ncnc(Nc3cccc(-c4cn(C(C)(Cc5ccccc5)C(=O)OC)nn4)c3)c2cc1OCCOC` (centres unmarked) [Compound 24], `COCCOc1cc2ncnc(Nc3cccc(-c4cn(C(C)(C)c5ccccc5)nn4)c3)c2cc1OCCOC` [Compound 27] is higher in Relative survival rate: 0.557 for the first, 0.862 for the second.

Compared with `COCCOc1cc2ncnc(Nc3cccc(-c4cn(Cc5c[nH]cn5)nn4)c3)c2cc1OCCOC` [Compound 53], `COCCOc1cc2ncnc(Nc3cccc(-c4cn(Cc5cc(C)on5)nn4)c3)c2cc1OCCOC` [Compound 54] is lower in Relative survival rate: 0.928 for the first, 0.878 for the second.

Going from `COCCOc1cc2ncnc(Nc3cccc(-c4cn(CCc5ccc(Cl)c(Cl)c5)nn4)c3)c2cc1OCCOC` [Compound 87] to `COCCOc1cc2ncnc(Nc3cccc(-c4cn(CCc5cccc([N+](=O)[O-])c5)nn4)c3)c2cc1OCCOC` [Compound 49], the Relative survival rate rises from 0.850 to 0.913.

First: COCCOc1cc2ncnc(Nc3cccc(-c4cn(Cc5ccc(Cl)nc5)nn4)c3)c2cc1OCCOC [Compound 98]
Second: COCCOc1cc2ncnc(Nc3cccc(-c4cn(Cc5ccsc5)nn4)c3)c2cc1OCCOC [Compound 57]
The Relative survival rate of the first is higher: 0.959 for the first, 0.957 for the second.

Going from `COCCOc1cc2ncnc(Nc3cccc(-c4cn(CCCOCc5ccccc5)nn4)c3)c2cc1OCCOC` [Compound 85] to `COCCOc1cc2ncnc(Nc3cccc(-c4cn(C[C@@H](O)c5ccccc5)nn4)c3)c2cc1OCCOC` [Compound 84], the Relative survival rate rises from 0.867 to 0.988.

Compared with `COCCOc1cc2ncnc(Nc3cccc(-c4cn(C(C)(C)c5cc(F)cc(F)c5)nn4)c3)c2cc1OCCOC` [Compound 56], `COCCOc1cc2ncnc(Nc3cccc(-c4cn(-c5ccc(C)cc5C(=O)O)nn4)c3)c2cc1OCCOC` [Compound 268] is higher in Relative survival rate: 0.978 for the first, 1.311 for the second.

First: COCCOc1cc2ncnc(Nc3cccc(-c4cn(C5CCCc6ccccc65)nn4)c3)c2cc1OCCOC (centres unmarked) [Compound 89]
Second: COCCOc1cc2ncnc(Nc3cccc(-c4cn([C@H]5CCc6nc(N)sc6C5)nn4)c3)c2cc1OCCOC [Compound 22]
The Relative survival rate of the first is lower: 0.577 for the first, 0.866 for the second.

First: COCCOc1cc2ncnc(Nc3cccc(-c4cn(CC(O)c5cccc(Cl)c5)nn4)c3)c2cc1OCCOC (centres unmarked) [Compound 92]
Second: COCCOc1cc2ncnc(Nc3cccc(-c4cn(CC(O)c5cccc(O)c5)nn4)c3)c2cc1OCCOC (centres unmarked) [Compound 95]
The Relative survival rate of the first is lower: 0.854 for the first, 0.971 for the second.

First: COCCOc1cc2ncnc(Nc3cccc(-c4cn([C@@H](C)C(=O)OCc5ccccc5)nn4)c3)c2cc1OCCOC [Compound 96]
Second: COCCOc1cc2ncnc(Nc3cccc(-c4cn([C@H](CO)C(=O)OCc5ccccc5)nn4)c3)c2cc1OCCOC [Compound 51]
The Relative survival rate of the first is lower: 0.829 for the first, 0.989 for the second.

Compared with `COCCOc1cc2ncnc(Nc3cccc(-c4cn(-c5ccc(O)c(C(=O)O)c5)nn4)c3)c2cc1OCCOC` [Compound 267], `COCCOc1cc2ncnc(Nc3cccc(-c4cn(CC5=CCC(O)C=C5)nn4)c3)c2cc1OCCOC` (centres unmarked) [Compound 25] is lower in Relative survival rate: 1.129 for the first, 0.885 for the second.

Going from `COCCOc1cc2ncnc(Nc3cccc(-c4cn(CCc5ccccn5)nn4)c3)c2cc1OCCOC` [Compound 99] to `COCCOc1cc2ncnc(Nc3cccc(-c4cn(CCc5ccc6ccccc6c5)nn4)c3)c2cc1OCCOC` [Compound 97], the Relative survival rate falls from 0.888 to 0.654.

Compared with `COCCOc1cc2ncnc(Nc3cccc(-c4cn([C@@H](Cc5ccccc5)C(=O)OC(C)(C)C)nn4)c3)c2cc1OCCOC` [Compound 23], `COCCOc1cc2ncnc(Nc3cccc(-c4cn(CCc5c[nH]c6cc(Cl)ccc56)nn4)c3)c2cc1OCCOC` [Compound 90] is lower in Relative survival rate: 0.874 for the first, 0.522 for the second.
